From PubChem BioAssay AID493002 (Sanford-Burnham Center for Chemical Genomics, 2010) come the findings set out here.

Broadly, the IC50 is the midpoint of a concentration-inhibition curve.

The experiment deals with S. cerevisiae tim23-1 mutant growth, luminescence. Kind of experiment: potency against tim23-1 yeast growth – luminescence, uHTS hits, dose response (AID 493002).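 Further: yeast grown roughly 22 hours at 25 °C before the luminescence read.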
Regarding `O=C(N/N=C/c1coc2ccc(Cl)cc2c1=O)c1ccncc1`, the IC50 was 22.3 µM.

For `CC1CCN(c2nnc(N3CCC(C)CC3)c3ccccc23)CC1`, the IC50 was 34.9 µM. With `CCCCCCSC1=C(C#N)C(c2ccccc2)CC(=O)N1` (stereo unspecified), the IC50 was 13.4 µM. Under `Cc1cc(Nc2ccccc2)nn1C(=O)c1ccccc1` stands 12 µM; under `COc1ccc2c(c1)OC[C@H]1[C@H]2N2C(=O)c3cc(C)ccc3NC(=O)[C@@]2(C)[C@H]1c1ccccc1`, 13.1 µM. The value for `COC(=O)c1ccc(-c2ccc(C(c3c(C)[nH][nH]c3=O)c3c(C)[nH][nH]c3=O)o2)cc1` was 11.2 µM; that for `COc1ccc(S(=O)(=O)NCc2ccc(C)cc2)cc1` was 20.5 µM; that for `Cc1ccccc1C(=O)Oc1cccc2c(O)cccc12` was 8.53 µM.

On to `CC1=CC(C)(C)N(C(=O)c2ccc(F)cc2)c2cc3c(cc21)OCO3`, for which the IC50 was 14.3 µM. The value for `Cc1cccc(OCCN2C(=O)C(=O)c3cc(C)ccc32)c1` was 9.52 µM; that for `Cc1ccc(C(=O)Nc2nc(C(C)(C)C)cs2)s1` was 13.6 µM. Under `CCCCn1c(N)c(N(CCC(C)C)C(=O)c2ccc3c(c2)OCO3)c(=O)[nH]c1=O` stands 11.1 µM; under `O=C(Nc1ccc2oc(-c3ccccc3)nc2c1)c1cccnc1`, 5.53 µM. The value for `O=C(N/N=C/c1ccc(Br)s1)c1c[nH]c2ccccc12` was 14.9 µM; that for `O=c1/c(=C/c2cccc3ccccc23)sc2ncnn12` was 7.13 µM. Take `O=C1NN=C(c2ccc(Br)cc2)CC1c1ccc(Cl)cc1` (stereo unspecified): the IC50 was 9.86 µM. Under `O=C(Nc1cc(-c2ccccc2)[nH]n1)c1ccccc1F` stands 20.2 µM; under `Cc1ccc2nc(NC(=O)COC(=O)c3cccnc3)sc2c1`, 9.58 µM; under `O=C(/C=C/c1ccccc1)NCCc1c[nH]c2ccccc12`, 15 µM. Regarding `Cn1cccc1-c1nc2ccc(NC(=O)c3cccs3)cc2[nH]1`, the IC50 is 10.8 µM. Under `CC1CCN(c2ccc(-c3cccs3)nn2)CC1` stands 6.21 µM.

For the compound `O=Cc1cn(CCOc2ccccc2F)c2ccccc12`, the IC50 was 13 µM. The value for `Nc1cc([N+](=O)[O-])cc2oc(-c3ccccc3)cc12` was 13.1 µM; that for `O=C(Nc1ncc([N+](=O)[O-])s1)c1ccc2c(c1)OCO2` was 17.6 µM. The value for `Nc1ccc2nc(SCc3cccc(F)c3)sc2c1` was 13.9 µM. The value for `O=C(Nc1cccc(NC(=O)c2cccs2)c1)c1ccc(Br)o1` was 9.28 µM; that for `Nc1cccc(-c2nc3ccc(C(=O)c4ccccc4)cc3[nH]2)c1` was 10.7 µM; that for `COc1ccc(C(C[N+](=O)[O-])c2c(-c3ccccc3)cc3ccccn23)cc1OC` (stereo unspecified) was 12.7 µM. Consider `COC(=O)c1cccc(-c2ccc(C(c3c(C)[nH][nH]c3=O)c3c(C)[nH][nH]c3=O)o2)c1`, for which the IC50 was 15.1 µM. Under `CC1CCC(NC(=O)c2cc(C3CC3)nn2-c2ccccc2)CC1` (stereo unspecified) stands 15.8 µM; under `Cc1cc(C(=O)Nc2ccc(Br)cn2)sc1C`, 21.1 µM; under `Cc1[nH][nH]c(=O)c1C(c1ccc(-c2ccc(Cl)cc2)o1)c1c(C)[nH][nH]c1=O`, 12.8 µM.

As for `COc1ccc2c(=O)c3c(=O)n(Cc4ccco4)c(-c4ccccc4)nc3oc2c1`, the IC50 was 17.5 µM.

For the compound `O=C(O)c1ccc(N/N=C/c2ccc(-c3ccc(Br)cc3)o2)cc1`, the IC50 is 16.2 µM.

Consider `CCOC(=O)CSc1c(-c2cccs2)[nH]c2ccccc12`, for which the IC50 is 15.2 µM.

Take `O=C1c2ccccc2-c2n[nH]c3cccc1c23`: the IC50 was 6.31 µM. Under `Cc1ccc(NC(=O)c2ccc(Cl)c(NC(=O)c3cccs3)c2)cc1` stands 14.5 µM. Under `COc1ccc(CCCC(=O)N/N=C/c2ccc(C)cc2)cc1` stands 16.7 µM.

With `Oc1ccc2ccccc2c1/C=N/c1nccs1`, the IC50 is 10.4 µM. The value for `O=C(c1ccc(-c2nc3ccccc3s2)s1)N1CCOCC1` was 19.2 µM; that for `CCN1C(=O)/C(=C2\SC(N3CCCCC3)=NC2=O)c2ccccc21` was 17.8 µM.
